According to the SangsterLogP compilation:

assay: method code SF-AS, from PMID: 582926

Compound | logP
C[C@@H]1O[C@@H](O[C@@H]2C=C3CC[C@@H]4[C@H](CC[C@]5(C)[C@@H](c6ccc(=O)oc6)CC[C@]45O)[C@@]3(C)CC2)[C@H](O)[C@H](O)[C@H]1O | 2.48

assay: method code SF-CR, from PMID: 582926

Compound | logP
C[C@@H]1O[C@@H](O[C@H]2CC[C@]3(C=O)[C@H]4CC[C@]5(C)[C@@H](C6=CC(=O)OC6)CC[C@]5(O)[C@@H]4CC[C@]3(O)C2)[C@H](O)[C@H](O)[C@H]1O | -0.48
C[C@H]1O[C@@H](O[C@H]2[C@@H](O)C[C@H](O[C@H]3[C@@H](O)C[C@H](O[C@H]4CC[C@@]5(C)[C@H](CC[C@@H]6[C@@H]5CC[C@]5(C)[C@@H](C7=CC(=O)OC7)[C@@H](O)C[C@]65O)C4)O[C@@H]3C)O[C@@H]2C)C[C@H](O)[C@@H]1O | 1.66
C[C@H]1O[C@@H](O[C@H]2CC[C@]3(C=O)[C@H]4CC[C@]5(C)[C@@H](C6=CC(=O)OC6)CC[C@]5(O)[C@@H]4CC[C@]3(O)C2)C[C@H](O)[C@@H]1O | 0.3
CC(=O)O[C@H]1C[C@]2(O)[C@@H]3CC[C@@H]4C[C@@H](O[C@H]5C[C@H](O)[C@H](O[C@H]6C[C@H](O)[C@H](O[C@H]7C[C@H](O)[C@H](O)[C@@H](C)O7)[C@@H](C)O6)[C@@H](C)O5)CC[C@]4(C)[C@H]3CC[C@]2(C)[C@H]1C1=CC(=O)OC1 | 2.15
CC1OC(OC2CCC3(CO)C4CCC5(C)C6(C=CC(=O)OC6)CCC5(O)C4CCC3(O)C2)CC(O)C1O (stereo not given) | 0.15
COC1CC(OC2CC[C@@]3(C)[C@H](CC[C@@H]4[C@H]3CC[C@]3(C)C(C5=CC(=O)OC5)C(OC(C)=O)C[C@]43O)C2)OC(C)C1O (stereo not given in full) | 2.26
CC(=O)O[C@H]1C[C@H](O[C@H]2CC[C@@]3(C)[C@H](CC[C@@H]4[C@@H]3C[C@@H](O)[C@]3(C)[C@@H](C5=CC(=O)OC5)CC[C@]43O)C2)O[C@H](C)[C@H]1O[C@H]1C[C@H](OC(C)=O)[C@H](O[C@H]2C[C@H](O)[C@H](O)[C@@H](C)O2)[C@@H](C)O1 | 2.45
C[C@@H]1O[C@@H](O[C@H]2CC[C@@]3(C)[C@H](CC[C@@H]4[C@@H]3CC[C@]3(C)[C@@H](C5=CC(=O)OC5)CC[C@]43O)C2)[C@H](O)[C@H](O)[C@H]1O | 2.1
CO[C@H]1[C@H](O)[C@H](O[C@H]2CC[C@@]3(C=O)[C@H](CC[C@@H]4[C@@H]3CC[C@]3(C)[C@@H](C5=CC(=O)OC5)CC[C@]43O)C2)O[C@@H](C)[C@@H]1O | 1.05
CO[C@H]1C[C@H](O[C@H]2CCC3(CO)C4CCC5(C)[C@@H](C6=CC(=O)OC6)CCC5(O)C4CCC3(O)C2)O[C@H](C)[C@H]1O (stereo not given in full) | 0.56
CC12CCC(OC3OC(CO)C(O)C(O)C3O)CC1CCC1C2CCC2(C)C(C3=CC(=O)OC3)CCC12O (stereo not given) | -0.64
CC(=O)OC1CC(OC2CCC3(C)C(CCC4C3CC(O)C3(C)C(C5=CC(=O)OC5)CCC43O)C2)OC(C)C1OC1CC(O)C(OC2CC(O)C(O)C(C)O2)C(C)O1 (stereo not given) | 1.71
CC(=O)O[C@H]1[C@@H](OC(C)=O)C[C@H](O[C@H]2[C@@H](OC(C)=O)C[C@H](O[C@H]3[C@@H](OC(C)=O)C[C@H](O[C@H]4CC[C@@]5(C)[C@H](CC[C@@H]6[C@@H]5CC[C@]5(C)[C@@H](C7=CC(=O)OC7)[C@@H](OC(C)=O)C[C@]65O)C4)O[C@@H]3C)O[C@@H]2C)O[C@@H]1C | 2.85
CO[C@H]1[C@H](O)[C@H](O[C@H]2CC[C@@]3(C)[C@H](CC[C@@H]4[C@@H]3CC[C@]3(C)[C@@H](C5=CC(=O)OC5)CC[C@]43O)C2)O[C@@H](C)[C@@H]1O | 2.1

assay: method code SF-RC, from PMID: 582926

Compound | logP
C[C@H]1O[C@@H](O[C@H]2[C@@H](O)C[C@H](O[C@H]3CC[C@@]4(C)[C@@H](CC[C@@H]5[C@@H]4CC[C@]4(C)[C@@H](C6=CC(=O)OC6)CC[C@]54O)C3)O[C@@H]2C)C[C@H](O)[C@@H]1O | 2.15
CC1OC(OC2CCC3(C)C(CCC4C3CCC3(C)C(C5=CC(=O)OC5)CCC43O)C2)CC(O)C1O (stereo not given) | 2.48
CC(=O)OC1CC(OC2C(O)CC(OC3C(O)CC(OC4CCC5(C)C(CCC6C5CC(O)C5(C)C(C7=CC(=O)OC7)CCC65O)C4)OC3C)OC2C)OC(C)C1O (stereo not given) | 1.97
CC(=O)O[C@H]1C[C@H](O[C@H]2[C@@H](O)C[C@H](O[C@H]3[C@@H](O)C[C@H](O[C@H]4CC[C@@]5(C)[C@@H](CC[C@@H]6[C@H]5CC[C@]5(C)[C@@H](C7=CC(=O)OC7)CC[C@]65O)C4)O[C@@H]3C)O[C@@H]2C)O[C@H](C)[C@H]1O[C@@H]1O[C@H](CO)[C@@H](O)[C@H](O)[C@H]1O | 1.23
CO[C@H]1[C@@H](O)C[C@H](O[C@H]2[C@@H](O)C[C@H](O[C@H]3[C@@H](O)C[C@H](O[C@H]4CC[C@@]5(C)[C@H](CC[C@@H]6[C@@H]5C[C@@H](O)[C@]5(C)[C@@H](C7=CC(=O)OC7)CC[C@]65O)C4)O[C@@H]3C)O[C@@H]2C)O[C@@H]1C | 1.73
CC1OC(OC2CCC3(C)C(CCC4C3CC(O)C3(C)C(C5=CC(=O)OC5)CCC43O)C2)CC(O)C1OC1CC(O)C(OC2CC(O)C(OC3OC(C(=O)O)C(O)C(O)C3O)C(C)O2)C(C)O1 (stereo not given) | -1.77
CC1OC(OC2CCC3(C)C(CCC4C3CCC3(C)C(C5=CC(=O)OC5)C(O)CC43O)C2)CC(O)C1O (stereo not given) | 1.76
C[C@]12CC[C@H](O)C[C@H]1CC[C@H]1C3=CC[C@H](C4=CC(=O)OC4)[C@@]3(C)CC[C@@H]12 | 2.52
CC1O[C@H](O[C@H]2CC[C@]3(CO)C4CC[C@]5(C)[C@@H](C6=CC(=O)OC6)CC[C@]5(O)C4CC[C@]3(O)C2)C(O)C(O)[C@@H]1O (stereo not given in full) | -0.62
CO[C@H]1CC(O[C@H]2CC[C@@]3(C)[C@H](CC[C@@H]4[C@@H]3CC[C@]3(C)[C@@H](C5=CC(=O)OC5)[C@@H](OC(C)=O)C[C@]43O)C2)O[C@@H](C)[C@@H]1OC(C)=O (stereo not given in full) | 2.95
CC(=O)OC1CC2(O)C3CCC4CC(O)CCC4(C)C3CCC2(C)C1C1=CC(=O)OC1 (stereo not given) | 1.93
CO[C@H]1C[C@H](O[C@H]2CC[C@@]3(C)[C@H](CC[C@@H]4[C@@H]3CC[C@]3(C)[C@@H](C5=CC(=O)OC5)CC[C@]43O)C2)O[C@@H](C)[C@@H]1O | 2.37
CC(=O)OC1C[C@@H](OC2C(O)C[C@@H](OC3C(O)C[C@@H](OC4CC[C@@]5(C)[C@H](CC[C@H]6[C@H]5CC(O)[C@]5(C)C(C7=CC(=O)OC7)CC[C@]65O)C4)OC3C)OC2C)OC(C)C1O[C@H]1OC(CO)C(O)C(O)C1O (stereo not given in full) | 0.07
C[C@H]1O[C@@H](O[C@H]2CC[C@@]3(C)[C@H](CC[C@@H]4[C@@H]3CC[C@]3(C)[C@@H](C5=CC(=O)OC5)CC[C@]43O)C2)C[C@H](O)[C@@H]1O[C@H]1C[C@H](O)[C@H](O[C@H]2C[C@H](O)[C@H](O[C@@H]3O[C@H](C(=O)O)[C@@H](O)[C@H](O)[C@H]3O)[C@@H](C)O2)[C@@H](C)O1 | -1.1
CO[C@H]1CC(O[C@H]2CC[C@@]3(C)[C@H](CC[C@@H]4[C@@H]3CC[C@]3(C)[C@@H](C5=CC(=O)OC5)[C@@H](OC(C)=O)C[C@]43O)C2)O[C@H](C)C1=O (stereo not given in full) | 1.65
